# Assay results as given in patent publication US7851474B2, “Dipiperazinyl ketones and related analogues” (Neurogen Corporation, priority 2005, dated 2010).
# Molecular target: T1, chimeric human H3 receptor (Homo sapiens, UniProt Q9Y5N1, E19D)
# T1 construct: made in house; host or cells: Sf9 insect cells (baculovirus infection); P2 membrane preparation
# Test: Chimeric human H3 receptor GTP binding assay (agonist-stimulated GTP-gamma35S binding, Example 7)
# Assay type: biochemical
# Settings: not given
# Description: This Example illustrates a representative assay for evaluating agonist-stimulated GTP-gamma^35S binding (“GTP binding”) activity. […] This agonist-stimulated GTP binding activity can also be used to detect partial agonism mediated by antagonist compounds. A compound analyzed in this assay is referred to herein as a “test compound.”
# Four independent baculoviral stocks (one directing the expression of the chimeric human H3 receptor and three directing the expression of each of the three subunits of a heterotrimeric G-protein) are used to infect a culture of Sf9 cells as described above. P2 membranes are prepared as described above, and agonist-stimulated GTP binding on the P2 membranes is assessed using histamine (Sigma Chemical Co., St. Louis, Mo.) as agonist in order to ascertain that the receptor/G-protein-alpha-beta-gamma combination(s) yield a functional response as measured by GTP binding. P2 membranes are resuspended by Dounce homogenization (tight pestle) in GTP binding assay buffer (50 mM Tris pH 7.4, 120 mM NaCl, 5 mM MgCl2, 2 mM EGTA, 1 mg/ml BSA, 0.2 mg/ml bacitracin, 0.02 mg/ml aprotinin, 0.01 mg/ml saponin, 10 μM GDP) and added to assay tubes at a concentration of 35 μg protein/reaction tube. […] In competition experiments, non-radiolabeled test compounds are added to separate reactions at concentrations ranging from 10^−10 M to 10^−6 M along with 1 μM histamine to yield a final volume of 0.20 ml.
# Neutral antagonists are antagonists that are substantially free of inherent agonist activity, and include those test compounds that reduce the histamine-stimulated GTP binding activity towards, but not below, baseline levels. In contrast, in the absence of added histamine, inverse agonists reduce the GTP binding activity of the receptor-containing membranes below baseline.
# After a 60-min incubation at room temperature, reactions are terminated by vacuum filtration over WHATMAN GF/C filters (pre-soaked in wash buffer, 0.1% BSA) followed by washing with ice-cold wash buffer (50 mM Tris pH 7.4, 120 mM NaCl). The amount of receptor-bound (and thereby membrane-bound) GTP-gamma^35S is determined by measuring the filter-bound radioactivity, preferably by liquid scintillation spectrometry of the washed filters. […] Data is expressed as percent above basal (baseline). The results of GTP binding experiments are analyzed using SIGMAPLOT software (SPSS Inc., Chicago, Ill.).
# IC50 values are calculated by non-linear regression analysis of dose-response curves using Kaleidograph (Synergy Software, Reading, Pa.).
# T1 sequence (Q9Y5N1 with tags, fused parts or gaps E19D): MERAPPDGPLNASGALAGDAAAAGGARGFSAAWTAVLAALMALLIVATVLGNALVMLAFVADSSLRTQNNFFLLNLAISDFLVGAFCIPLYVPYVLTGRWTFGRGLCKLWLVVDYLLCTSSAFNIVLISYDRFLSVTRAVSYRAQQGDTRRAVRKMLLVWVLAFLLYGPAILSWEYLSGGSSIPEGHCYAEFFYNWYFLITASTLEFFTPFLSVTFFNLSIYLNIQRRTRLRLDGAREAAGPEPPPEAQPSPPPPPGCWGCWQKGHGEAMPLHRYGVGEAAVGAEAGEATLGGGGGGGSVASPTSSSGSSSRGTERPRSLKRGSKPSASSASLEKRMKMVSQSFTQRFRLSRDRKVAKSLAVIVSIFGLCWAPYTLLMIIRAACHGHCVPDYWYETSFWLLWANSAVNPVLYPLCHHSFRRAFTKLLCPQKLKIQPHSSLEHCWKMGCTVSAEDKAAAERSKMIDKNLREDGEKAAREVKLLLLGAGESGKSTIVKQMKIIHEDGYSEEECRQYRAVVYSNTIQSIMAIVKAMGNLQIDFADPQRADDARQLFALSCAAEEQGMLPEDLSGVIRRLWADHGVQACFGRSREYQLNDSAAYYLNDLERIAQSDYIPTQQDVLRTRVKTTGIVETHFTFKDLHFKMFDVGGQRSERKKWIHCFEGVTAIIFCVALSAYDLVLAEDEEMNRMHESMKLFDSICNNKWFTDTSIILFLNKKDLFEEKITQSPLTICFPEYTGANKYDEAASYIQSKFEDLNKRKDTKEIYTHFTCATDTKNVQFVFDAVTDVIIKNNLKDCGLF
row,Structure (SMILES),Ki
1,"CC(C)N1CCN(C(=O)CN2CCN(c3cccc(F)c3)CC2)CC1 [Compound 303, 1-(3-fluorophenyl)-4-[2-(4-isopropylpiperazin-1-yl)-2-oxoethyl]piperazine]",< 1 µM

# Same assay, conditions: assay of Example 7; symbol * in column headed Ki of Table II; read-out: Ki
row,Structure (SMILES),Ki
1,"CC(=O)c1ccc(N2CCN(CC(=O)N3CCN(C4CCC4)CC3C)CC2)cc1 (stereo not drawn) [Compound 304, 1-(4-{4-[2-(4-cyclobutyl-2-methylpiperazin-1-yl)-2-oxoethyl]piperazin-1-yl}phenyl)ethanone]",< 1 µM
2,"CC(=O)c1ccc(N2CCN(CC(=O)N3CCN(C4CCC4)CC3)[C@@H](C)C2)cc1 [Compound 307, 1-(4-{4-[2-(4-cyclobutylpiperazin-1-yl)-2-oxoethyl]-3-methylpiperazin-1-yl}phenyl)ethanone]",< 1 µM
3,"CC(=O)c1ccc(-c2ccc(N3CCN(CC(=O)N4CCN(C5CCC5)CC4)CC3)cc2)cc1 [Compound 309, 1-(4′-{4-[2-(4-cyclobutylpiperazin-1-yl)-2-oxoethyl]piperazin-1-yl}biphenyl-4-yl)ethanone]",< 1 µM
4,"CC(=O)c1ccc(N2CCN(CC(=O)N3CCN(C4CCC4)CC3)CC2)c2ccccc12 [Compound 310, 1-(4-{4-[2-(4-cyclobutylpiperazin-1-yl)-2-oxoethyl]piperazin-1-yl}-1-naphthyl)ethanone]",< 1 µM
5,"CC(=O)c1ccc(N2CCN(CC(=O)N3CCN(C4CCC4)CC3)CC2)c(F)c1 [Compound 311, 1-(4-{4-[2-(4-cyclobutylpiperazin-1-yl)-2-oxoethyl]piperazin-1-yl}-3-fluorophenyl)ethanone]",< 1 µM
6,"CC(C)C(=O)c1ccc(N2CCN(CC(=O)N3CCN(C4CCC4)CC3)CC2)cc1 [Compound 313, 1-(4-{4-[2-(4-cyclobutylpiperazin-1-yl)-2-oxoethyl]piperazin-1-yl}phenyl)-2-methylpropan-1-one]",< 1 µM
7,"CC(C)(C)C(=O)c1ccc(N2CCN(CC(=O)N3CCN(C4CCC4)CC3)CC2)cc1 [Compound 314, 1-(4-{4-[2-(4-cyclobutylpiperazin-1-yl)-2-oxoethyl]piperazin-1-yl}phenyl)-2,2-dimethylpropan-1-one]",< 1 µM
8,"CC(=O)c1ccc(N2CCN(CC(=O)N3CCN(C4CCC4)CC3)CC2)cc1 [Compound 315, 1-(4-{4-[2-(4-cyclobutylpiperazin-1-yl)-2-oxoethyl]piperazin-1-yl}phenyl)ethanone]",< 1 µM
9,"O=C(CN1CCN(c2ccc(C(=O)N3CCCCCC3)cc2)CC1)N1CCN(C2CCC2)CC1 [Compound 317, 1-(4-{4-[2-(4-cyclobutylpiperazin-1-yl)-2-oxoethyl]piperazin-1-yl}benzoyl)azepane]",< 1 µM
10,"COc1cc(C(C)=O)ccc1N1CCN(CC(=O)N2CCN(C3CCC3)CC2)CC1 [Compound 319, 1-(4-{4-[2-(4-cyclobutylpiperazin-1-yl)-2-oxoethyl]piperazin-1-yl}-3-methoxyphenyl)ethanone]",< 1 µM
11,"O=C(CN1CCN(c2ccc(N3CCCC3=O)cc2)CC1)N1CCN(C2CCC2)CC1 [Compound 320, 1-(4-{4-[2-(4-cyclobutylpiperazin-1-yl)-2-oxoethyl]piperazin-1-yl}phenyl)pyrrolidin-2-one]",< 1 µM
12,"CC(=O)c1ccc(N2CCC(C(C)(C)C(=O)N3CCN(C4CCCC4)CC3)CC2)cc1 [Compound 322, 1-(4-{4-[2-(4-cyclopentylpiperazin-1-yl)-1,1-dimethyl-2-oxoethyl]piperidin-1-yl}phenyl)ethanone]",< 1 µM
13,"CC(=O)c1ccc(N2CCN(CC(=O)N3CCN(C4CCCC4)CC3)CC2)cc1 [Compound 327, 1-(4-{4-[2-(4-cyclopentylpiperazin-1-yl)-2-oxoethyl]piperazin-1-yl}phenyl)ethanone]",< 1 µM
14,"CC(=O)c1ccc(N2CCN(CC(=O)N3CCN(CC(C)C)CC3)CC2)cc1 [Compound 328, 1-(4-{4-[2-(4-isobutylpiperazin-1-yl)-2-oxoethyl]piperazin-1-yl}phenyl)ethanone]",< 1 µM
15,"CC(O)c1ccc(N2CC3CC2CN3CC(=O)N2CCN(C3CCC3)CC2)cc1 (stereo not drawn) [Compound 331, 1-(4-{5-[2-(4-cyclobutylpiperazin-1-yl)-2-oxoethyl]-2,5-diazabicyclo[2.2.1]hept-2-yl}phenyl)ethanol]",< 1 µM
16,"CC(=O)c1ccc(N2C(=O)C3(CCN(CC(=O)N4CCN(C5CCC5)CC4)CC3)c3ccccc32)cc1 [Compound 332, 1-(4-acetylphenyl)-1′-[2-(4-cyclobutylpiperazin-1-yl)-2-oxoethyl]spiro[indole-3,4′-piperidin]-2(1H)-one]",< 1 µM
17,"COc1cc(N2CCN(CC(=O)N3CCN(C4CCCC4)CC3)CC2)ccc1Br [Compound 334, 1-(4-bromo-3-methoxyphenyl)-4-[2-(4-cyclopentylpiperazin-1-yl)-2-oxoethyl]piperazine]",< 1 µM
18,"CCN1CCN(C(=O)CN2CCN(c3ccc(Br)c(OC)c3)CC2)CC1 [Compound 335, 1-(4-bromo-3-methoxyphenyl)-4-[2-(4-ethylpiperazin-1-yl)-2-oxoethyl]piperazine]",< 1 µM
19,"COc1cc(N2CCN(CC(=O)N3CCN(C(C)C)CC3)CC2)ccc1Br [Compound 336, 1-(4-bromo-3-methoxyphenyl)-4-[2-(4-isopropylpiperazin-1-yl)-2-oxoethyl]piperazine]",< 1 µM

# Next, values leading:
row,Ki,Structure (SMILES)
1,< 1 µM,"CC(C)N1CCN(C(=O)CN2CCN(c3cccc(Cl)c3)CC2)CC1 [Compound 302, 1-(3-chlorophenyl)-4-[2-(4-isopropylpiperazin-1-yl)-2-oxoethyl]piperazine]"
2,< 1 µM,"CC(=O)c1ccc(N2CCN(CC(=O)N3CCN(C4CCC4)CC3)[C@H](C)C2)cc1 [Compound 306, 1-(4-{4-[2-(4-cyclobutylpiperazin-1-yl)-2-oxoethyl]-3-methylpiperazin-1-yl}phenyl)ethanone]"
3,< 1 µM,"CC(=O)c1cccc(-c2ccc(N3CCN(CC(=O)N4CCN(C5CCC5)CC4)CC3)cc2)c1 [Compound 308, 1-(4′-{4-[2-(4-cyclobutylpiperazin-1-yl)-2-oxoethyl]piperazin-1-yl}biphenyl-3-yl)ethanone]"
4,< 1 µM,"CCC(=O)c1ccc(N2CCN(CC(=O)N3CCN(C4CCC4)CC3)CC2)cc1 [Compound 312, 1-(4-{4-[2-(4-cyclobutylpiperazin-1-yl)-2-oxoethyl]piperazin-1-yl}phenyl)propan-1-one]"
5,< 1 µM,"COc1cc(N2CCN(CC(=O)N3CCN(C4CCC4)CC3)CC2)ccc1C(C)=O [Compound 318, 1-(4-{4-[2-(4-cyclobutylpiperazin-1-yl)-2-oxoethyl]piperazin-1-yl}-2-methoxyphenyl)ethanone]"
6,< 1 µM,"CC(=O)c1ccc(N2CCN(CC(=O)N3CCN(C4CCCCC4)CC3)CC2)cc1 [Compound 321, 1-(4-{4-[2-(4-cyclohexylpiperazin-1-yl)-2-oxoethyl]piperazin-1-yl}phenyl)ethanone]"
7,< 1 µM,"CC(=O)c1ccc(N2CCN(C(C)C(=O)N3CCN(C4CCCC4)CC3)CC2)cc1 (stereo not drawn) [Compound 323, 1-(4-{4-[2-(4-cyclopentylpiperazin-1-yl)-1-methyl-2-oxoethyl]piperazin-1-yl}phenyl)ethanone]"
8,< 1 µM,"CCC(=O)c1ccc(N2CCN(CC(=O)N3CCN(C4CCCC4)CC3)CC2)cc1 [Compound 324, 1-(4-{4-[2-(4-cyclopentylpiperazin-1-yl)-2-oxoethyl]piperazin-1-yl}phenyl)propan-1-one]"
9,< 1 µM,"CC(C)C(=O)c1ccc(N2CCN(CC(=O)N3CCN(C4CCCC4)CC3)CC2)cc1 [Compound 325, 1-(4-{4-[2-(4-cyclopentylpiperazin-1-yl)-2-oxoethyl]piperazin-1-yl}phenyl)-2-methylpropan-1-one]"
10,< 1 µM,"CC(C)(C)C(=O)c1ccc(N2CCN(CC(=O)N3CCN(C4CCCC4)CC3)CC2)cc1 [Compound 326, 1-(4-{4-[2-(4-cyclopentylpiperazin-1-yl)-2-oxoethyl]piperazin-1-yl}phenyl)-2,2-dimethylpropan-1-one]"
11,< 1 µM,"CC(=O)c1ccc(N2CCN(CC(=O)N3CCN(C(C)C)CC3)CC2)cc1 [Compound 329, 1-(4-{4-[2-(4-isopropylpiperazin-1-yl)-2-oxoethyl]piperazin-1-yl}phenyl)ethanone]"
12,< 1 µM,"CCC(C)N1CCN(C(=O)CN2CCN(c3ccc(C(C)=O)cc3)CC2)CC1 (stereo not drawn) [Compound 330, 1-(4-{4-[2-(4-sec-butylpiperazin-1-yl)-2-oxoethyl]piperazin-1-yl}phenyl)ethanone]"
13,< 1 µM,"CC(=O)c1ccc(N2CCN(CC(=O)N3CCN(C4CCC4)CC3)CC2=O)cc1 [Compound 333, 1-(4-acetylphenyl)-4-[2-(4-cyclobutylpiperazin-1-yl)-2-oxoethyl]piperazin-2-one]"
